Source: US8350076B2, “Sodium channel blockers” (University of Virginia Patent Foundation, priority 2002, dated 2013)
Where two headings read alike, the source gives them in different places. Marks after values point to notes of the source that are not given here.

How the values were obtained:
[1] = biological target: Nav1.5 (Homo sapiens, UniProt Q14524); experiment: Electrophysiology, sodium currents in CHO cells stably expressing Nav1.5
[2] = tested on: C4-2 cells; experiment: Long-term growth assay (crystal violet), C4-2; format: cell-based, human; settings: for growth of C4-2 cells (in words): 40 μM, 7 days with drug; for IC50: Homo sapiens, C4-2, 120 h, day 5, read-out: Day Five Effects on Cell line IC50 (μM) ± S.E.M., C4-2
Method: (§1) C4-2 cells were plated at cell densities established previously to reach saturation at day 7. The cells were allowed to recover overnight before a media change with the analogues (all at 40 μM) was performed. The assays were terminated at day 1, 3, 5 and 7. Media changes were performed on day 0, 2, 4 and 6 with fresh analogues added each time. The cells were then fixed with glutaraldehyde and stained with crystal violet. The dye is then eluted in Sorenson's solution and the absorbance read at 540 nm. […] These assays were repeated for DU145, PC-3 and the paired metastatic cell line PC-3M. The data were normalized to the day 7 DMSO control for each cell line to allow for direct cell:cell comparison.

[3] = tested on: MAT-LyLu cells; settings: 6 µM; cited from earlier work
[4] = tested on: PC-3 cells; settings: cited from earlier work
[5] = tested on: sodium channel (BTX site 2); experiment: 3H-BTX-B binding inhibition; settings: for IC50: 3H-BTX-B Inhibition Data
Excerpt: One assay used to screen compounds for modulators of sodium channel activity, is based on the use of the radioligand 3-[H]-BTX-B assay. BTX binds to site 2 on the channel protein and thus compounds that can compete with or inhibit BTX binding to the sodium channel are potential sodium channel inhibitors. This assay represents a facile tool to prescreen sodium channel binding before evaluating compounds in more rigorous functional assays such as through electrophysiology.

[6] = tested on: PC-3 cells; experiment: 3H-thymidine uptake (DNA synthesis) in PC-3 cells; format: cell-based, human; settings: for inhibition at 1 µM / inhibition at 10 µM / inhibition at 20 µM / inhibition at 40 µM / inhibition at 100 µM: Homo sapiens, read-out: % Inhibition of PC3 Cells; for inhibition at 1 µM: PC-3, 1 μM; for inhibition at 10 µM: PC-3, 10 μM; for inhibition at 20 µM: PC-3, 20 μM; for inhibition at 40 µM: PC-3, 40 μM; for inhibition at 100 µM: PC-3, 100 μM; for effect on DNA synthesis (in words): dosages tested 1-100 μM
Method: The novel sodium channel blockers were assayed for activity against paired sets of cell lines with increasing metastatic potential, PC-3 and PC-3M (already androgen independent, AI), or increasing metastatic potential with increasing androgen independence, LNCaP and C4-2. DU145 was also included to provide another AI cell line with intermediate tumorigenicity between the LNCaP series and the PC-3 derivatives. This strategy allows an examination of at least three different genotypes for comparison of drug efficacy. […] The first assay used to screen these compounds was 3H-thymidine uptake in PC-3 cells. The cells were trypsinized, equal cell numbers were placed into each well and allowed to recover overnight.

[7] = tested on: all PCa cell lines tested (C4-2, DU145, PC-3, PC-3M); experiment: Long-term growth assay, panel of PCa cell lines; format: cell-based, human
Method: as §1

[8] = tested on: DU-145; experiment: Long-term growth assay (crystal violet), DU-145; format: cell-based; settings: Homo sapiens, DU-145, 120 h; day 5; read-out: Day Five Effects on Cell line IC50 (μM) ± S.E.M., DU-145
Method: as §1

[9] = tested on: PC3; experiment: Long-term growth assay (crystal violet), PC3; format: cell-based; settings: Homo sapiens, PC-3, 120 h; day 5; read-out: Day Five Effects on Cell line IC50 (μM) ± S.E.M., PC3
Method: as §1

[10] = tested on: PC-3M; experiment: Long-term growth assay (crystal violet), PC-3M; format: cell-based; settings: Homo sapiens, 120 h, day 5, read-out: Day Five Effects on Cell line IC50 (μM) ± S.E.M., PC-3M
Method: as §1

[11] = tested on: PSA secretion by PCa C4-2 cells; experiment: PSA secretion by PCa C4-2 cells; format: cell-based, human; settings: for decrease of PSA secretion on a per cell basis: 40 μM
Method: PSA levels are clinically important in following tumor progression and burden. Sodium channel blockers 1, 2 and 44 (at 40 μM) and phenyloin at (100 μM) were investigated for their ability to suppress PSA secretion by PCa C4-2 cells.

[12] = tested on: LNCaP; experiment: Long-term growth assay (crystal violet), LNCaP; format: cell-based; settings: Homo sapiens, 120 h, day 5, read-out: Day Five Effects on Cell line IC50 (μM) ± S.E.M., LNCaP
[13] = tested on: anchorage-independent colony formation; experiment: Soft agarose colony formation (SACF), 3-D growth; format: cell-based; settings: for inhibition in 3-D growth (SACF) as compared to phenytoin: same concentration as 2-D
[14] = tested on: cell growth in 2-D; experiment: 2-D growth assay; format: cell-based; settings: molar equivalence to the phenytoin IC50
[15] = tested on: mice

Sequence of Nav1.5 (Q14524 whole entry): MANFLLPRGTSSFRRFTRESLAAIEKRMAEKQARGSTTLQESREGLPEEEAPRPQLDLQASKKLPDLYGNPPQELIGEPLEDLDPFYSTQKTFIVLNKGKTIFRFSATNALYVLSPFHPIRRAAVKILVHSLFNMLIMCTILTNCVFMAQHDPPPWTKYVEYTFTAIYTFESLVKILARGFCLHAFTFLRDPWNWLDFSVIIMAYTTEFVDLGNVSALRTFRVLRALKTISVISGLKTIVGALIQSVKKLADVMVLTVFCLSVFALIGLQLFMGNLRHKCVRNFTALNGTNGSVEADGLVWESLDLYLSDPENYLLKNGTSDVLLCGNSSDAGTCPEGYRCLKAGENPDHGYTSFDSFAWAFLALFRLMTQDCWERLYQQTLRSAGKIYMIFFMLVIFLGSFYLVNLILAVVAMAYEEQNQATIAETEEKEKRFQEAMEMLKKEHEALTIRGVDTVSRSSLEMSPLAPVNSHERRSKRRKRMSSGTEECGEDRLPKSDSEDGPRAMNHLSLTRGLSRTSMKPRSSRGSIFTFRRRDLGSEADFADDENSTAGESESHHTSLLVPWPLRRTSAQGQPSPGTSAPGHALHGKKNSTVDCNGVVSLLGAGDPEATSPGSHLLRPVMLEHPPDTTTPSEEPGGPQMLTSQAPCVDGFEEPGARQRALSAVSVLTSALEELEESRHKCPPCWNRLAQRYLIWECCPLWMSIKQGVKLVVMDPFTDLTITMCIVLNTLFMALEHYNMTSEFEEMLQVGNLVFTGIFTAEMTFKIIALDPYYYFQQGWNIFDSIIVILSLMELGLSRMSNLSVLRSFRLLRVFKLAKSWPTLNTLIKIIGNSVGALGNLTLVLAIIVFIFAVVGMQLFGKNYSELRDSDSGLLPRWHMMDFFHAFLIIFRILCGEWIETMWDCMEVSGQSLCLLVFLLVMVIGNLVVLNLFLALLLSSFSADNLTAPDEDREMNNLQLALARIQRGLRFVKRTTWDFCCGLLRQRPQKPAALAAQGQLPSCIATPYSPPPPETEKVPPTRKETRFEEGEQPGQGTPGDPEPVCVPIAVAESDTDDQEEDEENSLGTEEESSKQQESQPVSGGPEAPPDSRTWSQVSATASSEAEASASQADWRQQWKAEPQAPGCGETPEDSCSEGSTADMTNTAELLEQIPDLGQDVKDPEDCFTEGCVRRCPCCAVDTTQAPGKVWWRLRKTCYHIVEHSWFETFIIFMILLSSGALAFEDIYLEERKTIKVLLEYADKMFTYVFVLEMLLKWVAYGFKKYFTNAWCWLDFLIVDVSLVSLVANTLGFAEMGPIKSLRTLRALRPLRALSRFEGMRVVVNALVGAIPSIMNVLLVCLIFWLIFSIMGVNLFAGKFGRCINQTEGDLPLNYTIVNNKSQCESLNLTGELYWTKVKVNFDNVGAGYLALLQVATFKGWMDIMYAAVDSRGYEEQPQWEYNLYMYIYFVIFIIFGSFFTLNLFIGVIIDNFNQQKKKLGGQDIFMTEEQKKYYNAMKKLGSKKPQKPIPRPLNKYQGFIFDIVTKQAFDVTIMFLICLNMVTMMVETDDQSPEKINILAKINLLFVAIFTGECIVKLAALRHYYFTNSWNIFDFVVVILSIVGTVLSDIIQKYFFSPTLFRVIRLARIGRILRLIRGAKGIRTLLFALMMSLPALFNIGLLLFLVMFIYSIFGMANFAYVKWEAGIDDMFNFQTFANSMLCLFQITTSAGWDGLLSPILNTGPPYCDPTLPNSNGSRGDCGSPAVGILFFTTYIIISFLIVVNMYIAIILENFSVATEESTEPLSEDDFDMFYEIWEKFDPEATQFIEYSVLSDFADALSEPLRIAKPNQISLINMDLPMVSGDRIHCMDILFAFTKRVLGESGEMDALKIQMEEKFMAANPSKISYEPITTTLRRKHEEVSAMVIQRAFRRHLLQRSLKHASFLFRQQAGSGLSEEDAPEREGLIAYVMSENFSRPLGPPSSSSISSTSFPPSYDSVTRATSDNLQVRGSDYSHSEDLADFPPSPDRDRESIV

Structure (SMILES)	EC50 [1] [µM]	inhibition at 1 µM [6] [%]	inhibition at 10 µM [6] [%]	inhibition at 20 µM [6] [%]	inhibition at 40 µM [6] [%]	inhibition at 100 µM [6] [%]	effect on DNA synthesis (in words) [6]	IC50 [8] [µM]	IC50 [2] [µM]	IC50 [9] [µM]	IC50 [10] [µM]	decrease of PSA secretion on a per cell basis [11] [%]	IC50 [12] [µM]	other results
CCCCCCCC(O)(C(N)=O)c1ccc(F)cc1 (stereo not shown) [Compound 9]	34.2 ± 7.4													
CCN(CC)CC(=O)Nc1c(C)cccc1C [lidocaine, reference compound]														growth of C4-2 cells (in words) [2]: mildly stimulatory
NC1=N[C@H](O)[C@H]2[C@H]3O[C@]4(O)O[C@@H]([C@@H](O)[C@@]2(N1)[C@@H]4O)[C@]3(O)CO [TTX, Tetrodotoxin]														inhibition of invasiveness of MAT-LyLu cells in vitro [3]: up to 50%; reduction of invasiveness of PC-3 cells [4]: 31%
CCCCCCCC1(c2ccccc2)NC(=O)NC1=O (stereo not shown) [Compound 44]	29.8 ± 4.2	12.8	26.6	32.7	55	82	inhibited DNA synthesis better than phenyloin at all dosages tested	35.6 ± 2.6	67.4 ± 1.3	66 ± 0.1	58.4	14.9	71.8 ± 1.8	inhibition of 3H-BTX-B binding in comparison to phenytoin [5]: effective inhibition; IC50 [5]: 5 ± 1 µM; % Inhibition of PC3 Cells ([6]; 40 μM): 55.09%; selectivity of growth inhibition (in words) ([7]; long-term growth assay): cell selective inhibition of growth
O=C1NC(=O)C(c2ccccc2)(c2ccccc2)N1 [phenytoin, reference compound]	> 200	-23.8	-13.9	-21.8	-12.5	30.8	stimulatory							IC50 [5]: 40 µM; inhibition of SACF compared to the DMSO/EtOH control plates [13]: 25.7%; inhibition at 100 µM ([11]; Homo sapiens, C4-2, 100 μM): 17.8%
CCCCCCCC(O)(C(N)=O)c1cccc(Cl)c1 (stereo not shown) [Compound 1]								56 ± 0.7	51.3 ± 0.2	66 ± 0.7	61.9 ± 0.1	42.5	72.2 ± 0.1	inhibition in 3-D growth (SACF) as compared to phenytoin [13]: approximately 87.2%; inhibition in 2-D growth assays [14]: 66.3%; cells' growth, % of controls (maximum inhibition) ([7]; normalized to day 7 DMSO control): 20-25 % of controls; growth of C4-2 cells (in words) [2]: remarkable inhibition of growth; Number of mice with impaired balance on the rotating rod/total # of animals tested ([15]; 30 mg/kg i.p., 0.5 hours): 0/4; Number of mice with impaired balance on the rotating rod/total # of animals tested ([15]; 30 mg/kg i.p., 4.0 hours): 0/2; Number of mice with impaired balance on the rotating rod/total # of animals tested ([15]; 100 mg/kg i.p., 0.25 hours): 0/4^a; Number of mice with impaired balance on the rotating rod/total # of animals tested ([15]; 100 mg/kg i.p., 0.5 hours): 1/8; Number of mice with impaired balance on the rotating rod/total # of animals tested ([15]; 100 mg/kg i.p., 1.0 hours): 1/8; Number of mice with impaired balance on the rotating rod/total # of animals tested ([15]; 300 mg/kg i.p., 0.5 hours): 3/4; Number of mice with impaired balance on the rotating rod/total # of animals tested ([15]; 300 mg/kg i.p., 4.0 hours): 0/2; tolerated dose ([15]; mice, i.p., acute): up to 300 mg/kg; IC50 ([11]; Homo sapiens, C4-2, dose-response curve, read-out: IC50 for reducing PSA): ~10 µM
CCCCCCCC(O)(C(N)=O)c1ccc(Cl)cc1 (stereo not shown) [Compound 2]	12.7 ± 2.7	-3.61	25.2	44.6	48.9	96.2	inhibited DNA synthesis better than phenyloin at all dosages tested	67.2 ± 0.1	61.1 ± 0.1	66.8 ± 1.2	50	41.8	64.1 ± 4.3	inhibition of 3H-BTX-B binding in comparison to phenytoin [5]: effective inhibition; enhanced inhibition using SACF, % of phenytoin [13]: 41.5 % of phenyloin; inhibition in 3-D growth (SACF) as compared to phenytoin [13]: ~62%; inhibition in 2-D growth assays [14]: 42.3%
